Results: paper PMC6315506 (Viruses, 2018)

How the values were obtained:
Details in all cases: 10 µM
HIV-1/H5N1 pseudovirus = experiment: organism not typed; format: cell-based, influenza A virus A/Goose/Qinghai/59/05 (H5N1)
HIV-1/LASV pseudovirus = experiment: microbe, parasite or virus in culture; format: cell-based
HIV-1/EBOV pseudovirus = system: HIV-1/EBOV pseudovirus
A549 cells = system: A549 cells

SMILES | Inhibition HIV/H5N1 (HIV-1/H5N1 pseudovirus) [%] | Inhibition HIV/LASV (HIV-1/LASV pseudovirus) [%] | Inhibition HIV/EBOV (HIV-1/EBOV pseudovirus) [%] | Cell Viability (A549 cells) [%]
COc1nc2ccccc2cc1C(Nc1ccccc1NCCN(C)C)c1ccccc1 (stereo not shown) [SYL1621] | 97.96 | 99.14 | 99.90 | 52.36
COc1nc2ccc(Br)cc2cc1C(Nc1ccccc1OCCN(C)C)c1ccccc1 (stereo not shown) [SYL1622] | 96.99 | 83.38 | 99.12 | 77.49
COc1nc2ccc(Br)cc2cc1C(c1ccccc1)N(CCN(C)C)c1cccc2ccccc12 (stereo not shown) [SYL1623] | 105.28 | 15.39 | 97.68 | 87.19
COc1nc2ccccc2cc1C(c1ccccc1)n1c(=O)n(CCN(C)C)c2ccccc21 (stereo not shown) [SYL1624] | 53.54 | 85.88 | 99.82 | 86.63
COc1nc2ccccc2cc1C(c1ccccc1)n1c(=O)n(CCCN(C)C)c2ccccc21 (stereo not shown) [SYL1625] | -0.36 | 87.77 | 99.90 | 86.95
CC(=NOCCN(C)C)c1cc2ccccc2nc1Oc1cccc2ccccc12 [SYL1626] | 44.19 | 85.39 | 99.66 | 86.91
CN(C)CCC=C(c1ccccc1)c1cc2ccccc2nc1Oc1cccc2ccccc12.Cl [SYL1627] | 49.35 | 87.33 | 99.84 | 89.09
COc1nc2ccc(Br)cc2cc1C(c1ccccc1)N1CCN(C)c2ccccc21 (stereo not shown) [SYL1628] | -5.51 | 86.50 | 99.91 | 86.44
COc1nc2ccc(Br)cc2cc1C(c1ccccc1)n1cc(CN(C)C)c2ccccc21 (stereo not shown) [SYL1629] | 29.75 | 88.22 | 99.91 | 90.62
CN(C)CCC(O)(c1cccc(F)c1)C1c2ccccc2Sc2ccccc21 (stereo not shown) [SYL1634] | 83.95 | 83.87 | 99.53 | 81.21
CN(C)CCCC(O)(c1ccccc1)c1cc2ccccc2nc1Oc1cccc2ccccc12 (stereo not shown) [SYL1635] | 97.52 | 99.31 | 99.63 | 11.15
COc1nc2ccc(Br)cc2cc1C(c1ccccc1)C1(O)CCN(C)CC1 (stereo not shown) [SYL1636] | 97.70 | 98.04 | 99.39 | 4.08
CN(C)Cc1cccc(-c2cc3ccccc3nc2Oc2cccc3ccccc23)c1 [SYL1637] | 97.92 | 81.65 | 99.81 | 80.11
CN(C)Cc1cccc(-c2cc3cc(Br)ccc3nc2OCc2cccc3ccccc23)c1 [SYL1638] | 98.27 | 99.18 | 99.91 | 18.62
CN(C)Cc1cccc(-c2cc3cc(Br)ccc3nc2Sc2cccc(O)c2)c1 [SYL1639] | 97.65 | 98.93 | 99.85 | 2.71
CN(C)CCc1cccc(-c2cc3cc(Br)ccc3nc2OCc2cccc3ccccc23)c1 [SYL1643] | 72.74 | 83.87 | 99.82 | 85.39
CN1CCC(c2ccccc2)(C(O)(c2ccccc2)c2ccc3ccccc3c2)CC1 (stereo not shown) [SYL1644] | 97.63 | 92.36 | 99.92 | 78.35
COc1nc2ccc(Br)cc2cc1C(c1ccccc1)C1(OC(=O)c2ccccc2)CCN(C)CC1 (stereo not shown) [SYL1645] | 45.37 | 86.68 | 99.92 | 82.47
CN(C)C(=O)c1cccc(-c2cc3ccccc3nc2Oc2cccc3ccccc23)c1 [SYL1646] | -23.29 | 82.50 | 99.92 | 83.55
Fc1cccc(COc2nc3ccc(Br)cc3cc2-c2cccc(Oc3ccccn3)c2)c1 [SYL1647] | 44.09 | 89.08 | 99.94 | 82.66
CN(C)Cc1cccc(-c2cc3cc(Br)ccc3nc2Oc2ccncc2)c1 [SYL1648] | 37.82 | 89.27 | 99.91 | 84.21
COc1nc2ccc(Br)cc2cc1C(O)(Cc1cccc(F)c1)c1ccccc1CN(C)C (stereo not shown) [SYL1649] | 79.45 | 90.46 | 99.90 | 81.62

SMILES | Inhibition HIV/H5N1 (HIV-1/H5N1 pseudovirus) [%] | Inhibition HIV/LASV (HIV-1/LASV pseudovirus) [%] | Inhibition HIV/EBOV (HIV-1/EBOV pseudovirus) [%] | Cell Viability (A549 cells) [%]
Fc1cccc(COc2nc3ccc(Br)cc3cc2-c2cccc(-c3ncco3)c2)c1 [SYL1650] | -15.72 | 87.63 | 99.92 | 81.60
COc1nc2ccccc2cc1C(O)(Cc1cccc(F)c1)c1ccccc1 (stereo not shown) [SYL1651] | 30.01 | 89.23 | 99.95 | 79.56
CN(C)Cc1ccccc1C(O)c1cc2cc(Br)ccc2nc1OCc1cccc2ccccc12 (stereo not shown) [SYL1652] | 98.16 | 97.16 | 99.94 | 61.30
Brc1ccc2nc(Oc3cccc4ccccc34)c(-c3ccccc3)cc2c1 [SYL1653] | 64.36 | 87.04 | 99.85 | 82.57
CN(C)Cc1cccc(-c2cc3cc(Br)ccc3nc2Nc2cccc3ccccc23)c1 [SYL1656] | 49.96 | 51.43 | 79.70 | 77.79
COc1nc2ccccc2cc1C(O)(Cc1cccc(F)c1)c1cccc(CN(C)C)c1 (stereo not shown) [SYL1659] | 96.52 | 97.39 | 99.09 | 36.09
CN1CCC(c2ccccc2)(C(O)(c2ccccc2)c2ccccc2)CC1 [SYL1661] | 5.09 | 72.11 | 99.91 | 77.89
COc1nc2ccccc2cc1C(Nc1ccccc1N1CCN(C)C1=O)c1ccccc1 (stereo not shown) [SYL1662] | 68.52 | 89.05 | 99.56 | 89.06
COc1ccc(CC(O)(c2ccccc2CN(C)C)c2cc3cc(OC)ccc3nc2OC)cc1 (stereo not shown) [SYL1663] | 88.29 | 89.19 | 99.90 | 89.15
CN(C)Cc1cccc(-c2cc3cc(Br)ccc3nc2OCCc2cccc3ccccc23)c1 [SYL1664] | 50.44 | 86.44 | 99.90 | 84.59
CN(C)Cc1ccc(-c2cc3cc(Br)ccc3nc2OCc2cccc3ccccc23)cc1 [SYL1665] | 84.24 | 88.72 | 99.92 | 82.87
CN(C)Cc1cccc(-c2cc3cc(Br)ccc3nc2OCc2cccc(F)c2)c1 [SYL1666] | 87.06 | 91.03 | 99.92 | 81.28
COc1ccc2nc(OCc3cccc4ccccc34)c(-c3cccc(CN(C)C)c3)cc2c1 [SYL1667] | 85.49 | 85.91 | 99.94 | 83.17
COc1nc2ccccc2cc1C(O)(Cc1cccc(F)c1)c1ccccc1CN1CCOCC1 (stereo not shown) [SYL1668] | 74.86 | 86.46 | 99.87 | 79.06
CN1CCN(c2ccc(-c3cc4cc(Br)ccc4nc3OCc3cccc4ccccc34)cc2)CC1 [SYL1669] | 96.42 | 92.49 | 99.94 | 82.47
CN1CCN(Cc2ccc(-c3cc4cc(Br)ccc4nc3OCc3cccc4ccccc34)cc2)CC1 [SYL1670] | 91.10 | 77.77 | 99.92 | 82.37
CCN(CC)CCc1ccc(-c2cc3cc(Br)ccc3nc2OCc2cccc3ccccc23)cc1 [SYL1671] | 92.36 | 89.90 | 99.87 | 88.97
CNCCc1ccc(-c2cc3cc(Br)ccc3nc2OCc2cccc3ccccc23)cc1 [SYL1672] | 98.01 | 99.22 | 99.85 | 2.06
CN(C)Cc1ccc(-c2cc3cc(Br)ccc3nc2OCc2ccccc2)cc1 [SYL1675] | 98.13 | 91.37 | 99.89 | 88.37
CN(C)Cc1ccc(-c2cc3cc(Br)ccc3nc2Oc2ccccc2)cc1 [SYL1676] | 36.23 | 19.98 | 71.19 | 89.65
CN(C)C(=O)Cc1ccc(-c2cc3cc(Br)ccc3nc2OCc2cccc3ccccc23)cc1 [SYL1677] | 15.95 | 29.51 | 90.04 | 58.71
